Experiment [1] deals with m-IMCD3 cells expressing PDE4 long forms. Briefly: cAMP levels in assay media of PGE2-stimulated m-IMCD3 3D cell culture. It is filed as cell-based. The following applies: Mus musculus, mIMCD3; 3 μM test compound; compared to 100% for (DMSO + PGE2); read-out: cAMP level (% of PGE2-stimulated). As to the method: (§1) HEK 293 and MDCK cells (Public Health England, Cell Culture Collections) were maintained in Dulbecco's Modified Eagle's Medium (DMEM) supplemented with 10% (v/v) fetal bovine serum (FBS) (Seralab), 2 mM L-glutamine and 100 U/mL penicillin streptomycin cocktail (ThermoFisher); termed complete media. Clonal HEK 293 cell lines were maintained in complete media supplemented with 0.6 mg/ml G418 (Enzo Life Sciences). Mouse inner medullary collecting duct (m-IMCD3) cells [American Type Culture Collection (ATCC)] were maintained in media consisting of DMEM/Hams F-12 50/50 Mix (DMEM F12; Corning) supplemented with penicillin streptomycin cocktail (100 U/mL) and FBS (10% v/v) (DMEM F12-10% FBS).
Experiment 2: Reduction of CAMP Levels in m-IMCD3 Cell Culture Treated with PDE4 Long Form Activators
Activation of intracellular PDE4 long forms leads to a reduction of both intracellular CAMP and externalised cAMP (Omar et al., PNAS 116:13320-13329, 2019). This reduction may be measured in the cell culture media supernatant of 3D cystic cell cultures, such as in the m-IMCD3 cell cyst suppression assay described in Experiment 3.
Following the completion of the m-IMCD3 cell cyst suppression assay (Experiment 3), the CAMP levels in the assay media from individual or pooled assay wells was measured using a CAMP ELISA kit (Enzo Life Sciences) or a LANCE Ultra CAMP kit (PerkinElmer) according to the manufacturer's instructions.
Treatment with PDE4 long form activators reduced CAMP levels in PGE2-stimulated m-IMCD3 cell culture.
Background: Changes in cAMP serve as a functional read-out for many G protein-coupled receptors.

Experiment [2] has as its target T1, full-length human PDE4B2 (short isoform) (Homo sapiens, UniProt Q07343).
T1 construct: the full length human PDE4B2 short isoform; made in house; cytosol fraction of the cell lysate, not purified
Briefly: PDE assay ([3H]cAMP hydrolysis) with PDE4B2 cell lysate cytosol fraction. The format is biochemical. Particulars: 100 μM test compound; mean % increase in counts over basal activity. On the procedure: as §1
(§2) Experiment 1: Measurement of Modulation of Enzyme Activity by PDE4 Long Form Activators of the Present Invention Using Full-Length Human PDE4 Isoforms; Long Forms PDE4D5, PDE4C3, PDE4B1 and Short Form PDE4B2
(§3) (Marchmont, R. J. and Houslay, M. D. Biochem. J. 187:381-92, 1980)
(§4) Exogenous expression of long form PDE4 enzymes and stable cell line generation For transient transfection of exogenous PDE4 long isoforms, HEK 293 cells were transfected with pcDNA3.1 or pDEST™ PDE4 expression vectors using Lipofectamine LTX/Plus reagent (Invitrogen) as outlined by the manufacturer.
(§5) Where stable cell lines were generated the clonal isolates were expanded to obtain cell lines that stably expressed the full-length human PDE4 long isoforms and the full length human PDE4B2 short isoform. These were called the HEK-PDE4D5, HEK-PDE4B1 and HEK-PDE4B2 cell lines, respectively.
(§6) Lysate Preparation (Using PDE4D5 as a Typical Example)
(§7) HEK-PDE4D5 cells were seeded out in 100 mm plates and incubated at 37° C. in an atmosphere of 5% CO2, 95% air. Cell lysates were prepared using KHEM buffer [50 mM KCl, 10 mM EGTA, 50 mM HEPES (pH 7.2), 1.92 mM MgCl2].
(§8) To prepare the cell lysates, the 100 mm plates containing the cells were placed on ice and washed with ice-cold PBS (phosphate buffered saline, pH 7.4). KHEM buffer (500 μL) was added to the cells. Cells were then scraped off the plate and triturated using a needle (BD Microlance™ 0.8, 40 mm). The lysed cells were then centrifuged at 2000 rpm for 10 minutes to remove cell debris and the supernatant (cell lysate containing recombinant PDE4D5) was transferred to a fresh tube and kept on ice.
(§9) Cytosol Fraction Preparation (Using PDE4D5 as a Typical Example)
(§10) The cell lysate containing recombinant PDE4D5 was transferred into a centrifuge tube and placed into an ultracentrifuge (BECKMAN COULTER) and spun at high speed (100,000g) for 30 minutes at 4° C. The cytosol fraction was then collected and its protein amount determined using a BCA protein assay.
(§11) PDE Assay—(Using PDE4D5 as a Typical Example)
(§12) PDE assays were performed in thin-walled V-bottomed 96-well plates. […]

Experiment [3] deals with T2, full-length human PDE4D5 (long isoform) (Homo sapiens, UniProt Q08499).
T2 construct: cell lines that stably expressed the full-length human PDE4 long isoforms and the full length human PDE4B2 short isoform; made in house; cytosol fraction of the cell lysate, not purified
Briefly: PDE assay ([3H]cAMP hydrolysis) with PDE4D5 cell lysate cytosol fraction. The format is biochemical. The following applies: 100 μM test compound; mean % increase in counts over basal activity. On the procedure:
as §1, §2, §3, §4, §5, §6, §7, §8, §9, §10, §11, §12

In a further experiment the test system is m-IMCD3 cells. Briefly: Inhibition of PGE2-stimulated in vitro cyst formation in m-IMCD3 cells (3D culture). It is filed as cell-based. Particulars: Mus musculus, mIMCD3, 144 h, mean cyst area, 100% for (DMSO + PGE2) and 0% for DMSO control, 6 days of culture; for activity at 3 µM: read-out: % Cyst area* after incubation with 3 μM test compound. The gist of the method:
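m-IMCD3 cells in a 3D collagen I/Matrigel matrix at 37 °C, 5% CO2 were dosed 18–24 h after plating with compound (0.1% DMSO) plus 100 nM PGE2, in quadruplicate, replenished after 2–3 days. On day 6, z-stack imaging measured mean cyst area, normalised to DMSO+PGE2 (100%) and DMSO alone (0%).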

The values below come from US20260001876A1, “Compounds and Their Use as PDE4 Activators” (Mironid Limited, priority 2022, published 2026).

T2 sequence (Q08499 1-745 isoform Q08499-6): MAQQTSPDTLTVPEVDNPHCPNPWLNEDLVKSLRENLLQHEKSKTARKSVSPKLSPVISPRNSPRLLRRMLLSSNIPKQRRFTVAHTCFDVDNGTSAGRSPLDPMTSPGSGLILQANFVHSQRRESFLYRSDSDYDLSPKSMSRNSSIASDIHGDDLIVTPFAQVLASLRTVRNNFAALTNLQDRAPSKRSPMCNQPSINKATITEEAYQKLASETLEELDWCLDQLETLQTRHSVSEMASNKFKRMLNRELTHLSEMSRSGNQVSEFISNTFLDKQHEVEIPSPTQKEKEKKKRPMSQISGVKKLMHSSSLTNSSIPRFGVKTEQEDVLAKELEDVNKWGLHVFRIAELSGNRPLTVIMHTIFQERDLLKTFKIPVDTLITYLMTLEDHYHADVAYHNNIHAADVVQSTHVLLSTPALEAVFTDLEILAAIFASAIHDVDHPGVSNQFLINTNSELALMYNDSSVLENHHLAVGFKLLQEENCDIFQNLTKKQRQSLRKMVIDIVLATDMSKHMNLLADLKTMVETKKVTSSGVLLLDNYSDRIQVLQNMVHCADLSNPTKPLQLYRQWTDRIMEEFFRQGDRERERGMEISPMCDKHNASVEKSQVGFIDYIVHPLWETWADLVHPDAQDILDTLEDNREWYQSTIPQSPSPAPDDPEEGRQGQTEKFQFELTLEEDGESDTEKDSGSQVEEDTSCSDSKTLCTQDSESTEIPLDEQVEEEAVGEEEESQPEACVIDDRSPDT
T1 sequence (Q07343 1-564 isoform Q07343-2): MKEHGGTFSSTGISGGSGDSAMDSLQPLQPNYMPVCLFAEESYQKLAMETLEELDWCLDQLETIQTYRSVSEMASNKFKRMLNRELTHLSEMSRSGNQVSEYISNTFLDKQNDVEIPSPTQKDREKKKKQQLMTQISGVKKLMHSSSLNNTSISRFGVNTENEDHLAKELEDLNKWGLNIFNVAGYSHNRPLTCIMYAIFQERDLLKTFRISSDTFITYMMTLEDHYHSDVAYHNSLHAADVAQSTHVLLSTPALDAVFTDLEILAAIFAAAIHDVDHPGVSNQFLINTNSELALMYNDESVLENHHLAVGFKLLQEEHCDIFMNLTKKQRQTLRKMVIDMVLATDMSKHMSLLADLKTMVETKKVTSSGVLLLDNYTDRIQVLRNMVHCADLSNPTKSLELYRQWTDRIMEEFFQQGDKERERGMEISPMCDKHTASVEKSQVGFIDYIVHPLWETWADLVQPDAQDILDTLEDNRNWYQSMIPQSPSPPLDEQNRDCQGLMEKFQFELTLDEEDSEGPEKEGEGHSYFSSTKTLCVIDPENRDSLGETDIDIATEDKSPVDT

For the compound `O=C(COc1ccc(F)cc1)N1CCc2nc(N3C4CCC3CNC4)ccc2C1` [Example 46, 1-(2-(3,8-diazabicyclo[3.2.1]octan-8-yl)-7,8-dihydro-1,6-naphthyridin-6(5H)-yl)-2-(4-fluorophenoxy)ethan-1-one], in experiment [1], the activity at 3 µM was 42%. Moreover, in experiment [2], the “% increase in PDE4B2 (short isoform) activity at 100 μM*” value (shortened to “% increase in PDE4B2”) was 6%. Besides, the “% increase in PDE4D5 (long isoform) activity at 100 μM* (%)” value (“% increase in PDE4D5” for short) in experiment [3] stood at 94%.

In the case of `O=C(Cc1ccc(F)cc1)N1CCc2nc(N3C4CCC3CNC4)ccc2C1` [Example 48, 1-(2-(3,8-diazabicyclo[3.2.1]octan-8-yl)-7,8-dihydro-1,6-naphthyridin-6(5H)-yl)-2-(4-fluorophenyl)ethan-1-one], the activity at 10 µM with m-IMCD3 cells (10 μM, read-out: % Cyst area* after incubation with 10 μM test compound) was -5%. For the same compound, the activity at 3 µM in experiment [1] is 57%. Besides, the “% increase in PDE4B2” value in experiment [2] was −9%. Also, in experiment [3], the “% increase in PDE4D5” value was determined as 31%.

As to `O=C(Cc1ccc(F)cc1)N1CCc2nc(N3C4CCC3CNC4)ncc2C1` [Example 139, 1-(2-(3,8-diazabicyclo[3.2.1]octan-8-yl)-7,8-dihydropyrido[4,3-d]pyrimidin-6(5H)-yl)-2-(4-fluorophenyl)ethan-1-one], the activity at 3 µM in the experiment with m-IMCD3 cells is 1%. The “% increase in PDE4B2” value in experiment [2] is reported as −1%. Besides, the “% increase in PDE4D5” value in experiment [3] was determined as 28%.

Turning to `O=C(CC1CCCC1)N1CCc2nc(N3C4CCCC3CNC4)ccc2C1` [Example 151, 1-(2-(3,9-diazabicyclo[3.3.1]nonan-9-yl)-7,8-dihydro-1,6-naphthyridin-6(5H)-yl)-2-cyclopentylethan-1-one], the activity at 3 µM in the experiment on m-IMCD3 cells is -8%; in experiment [1], 51%.

For the compound `O=C(CC1CCCC1)N1CCc2nc(N3CC4CCCC(C3)N4)ccc2C1` [Example 152, 1-(2-(3,9-diazabicyclo[3.3.1]nonan-3-yl)-7,8-dihydro-1,6-naphthyridin-6(5H)-yl)-2-cyclopentylethan-1-one], the activity at 3 µM with m-IMCD3 cells was -6%; in experiment [1], 41%.

Consider `O=C(CC1CCCC1)N1CCc2nc(N3C[C@H]4C[C@@H]3CN4)ccc2C1` [Example 156, 1-(2-((1R,4R)-2,5-diazabicyclo[2.2.1]heptan-2-yl)-7,8-dihydro-1,6-naphthyridin-6(5H)-yl)-2-cyclopentylethan-1-one], for which the activity at 3 µM with m-IMCD3 cells turned out to be 4%; in experiment [1], 49%.

In the case of `O=S(=O)(Cc1ccc(F)cc1)N1CCc2nc(N3C4CCC3CNC4)ccc2C1` [Example 158, 2-(3,8-diazabicyclo[3.2.1]octan-8-yl)-6-((4-fluorobenzyl)sulfonyl)-5,6,7,8-tetrahydro-1,6-naphthyridine], the activity at 3 µM is 5% with m-IMCD3 cells and 46% in experiment [1].

For `CCN1CC2CCC(C1)N2c1ccc2c(n1)CCN(S(=O)(=O)Cc1ccc(F)cc1)C2` [Example 159, 2-(3-ethyl-3,8-diazabicyclo[3.2.1]octan-8-yl)-6-((4-fluorobenzyl)sulfonyl)-5,6,7,8-tetrahydro-1,6-naphthyridine], the activity at 3 µM with m-IMCD3 cells was determined as 1%. Also, the “% increase in PDE4B2” value in experiment [2] is given as 2%. Moreover, the “% increase in PDE4D5” value in experiment [3] was determined as 35%.

`O=S(=O)(Cc1ccc(F)cc1)N1CCc2nc(N3CCNCC3)ccc2C1` [Example 160, 6-((4-fluorobenzyl)sulfonyl)-2-(piperazin-1-yl)-5,6,7,8-tetrahydro-1,6-naphthyridine]: the activity at 3 µM in the experiment with m-IMCD3 cells was -4%; in experiment [1], 35%.

For `O=S(=O)(Cc1ccccc1)N1CCc2nc(N3C4CCC3CNC4)ccc2C1` [Example 162, 6-(benzylsulfonyl)-2-(3,8-diazabicyclo[3.2.1]octan-8-yl)-5,6,7,8-tetrahydro-1,6-naphthyridine], the activity at 3 µM in the experiment with m-IMCD3 cells is -3%; in experiment [1], 38%.

In the case of `CCN1CC2CCC(C1)N2c1ccc2c(n1)CCN(S(=O)(=O)Cc1ccccc1)C2` [Example 163, 6-(benzylsulfonyl)-2-(3-ethyl-3,8-diazabicyclo[3.2.1]octan-8-yl)-5,6,7,8-tetrahydro-1,6-naphthyridine], the activity at 3 µM was -1% in the experiment on m-IMCD3 cells and 39% in experiment [1].

With `O=C(N[C@H]1CCOc2ccccc21)N1CCc2nc(N3C4CCC3CNC4)ccc2C1` [Example 166, 2-(3,8-diazabicyclo[3.2.1]octan-8-yl)-N—((S)-chroman-4-yl)-7,8-dihydro-1,6-naphthyridine-6(5H)-carboxamide], the results for the activity at 3 µM (with m-IMCD3 cells; in experiment [1]) were 3% and 35%, respectively.
